Experimental data reported in patent US11878080B2, “Protein capsules” (Cambridge Enterprise Limited, priority 2014, dated 2024).
Each block holds one compound with its values, some of them ahead of it.

How the values were obtained:
[1] = Release kinetics of insulin, glucagon and lysozyme from protein microgel capsules (washing with DDW pH 7); type: physicochemical; conditions: compared to insulin and lysozyme proteins
Description: The efficiency of microfluidic techniques for protein capsules synthesis was studied by calculating the percentage of protein participating in capsule formation following the fluorescent signal of labelled protein in residue solutions. After the preparation of the microgel capsules was accomplished and the resulting capsules were washed, in order to remove unreacted species, and the concentration of unreacted protein was calculated following UV absorption and fluorescent signal of each protein. In order to study the release kinetics of insulin, glucagon and lysozyme protein microgel shells, the loaded samples were washed with DDW pH=7 within following intervals of time: 10 min., 30 min., 1 h., 3 h., 8 h., 12 h., 24 h., 48 h., 3 d., 7 d. Each washing solution was than analysed by UV spectroscopy and fluorimeter and exact concentration of the released species was detected.
Finally, whether the aggregation nature of the protein structures influenced the release kinetics of the encapsulated proteins was studied. […] This effect is attributed to the slow aggregation process of glucagon protein in the protein assembly. However, for the multishell structures, the proteins which localise at the core of the microgels tend to dissociate (release) only after the proteins of the outer shell are released. […]

[2] = Release of encapsulated small molecules from capsules in fresh buffer (UV absorption of supernatant); type: physicochemical
Description: The release of the encapsulated species from the capsules was then studied. To this effect, the capsules were incubated in fresh buffer for an increasing period of time, removed the gels by centrifugation, and measured the concentration of released small molecules in the supernatant through their UV absorption. The results shown in FIG. 4 (d) reveal marked differences in the rate of release of the small molecules.
The loaded microgels were washed with 10 mM HCl at intervals of time from 10 min to 14 d. The solutes after each washing were analysed by UV spectroscopy.

Compound: glucagon: human glucagon (Gemini Bio-Products), protein assembled into and released from microgel capsules
- release rate of protein from capsules [1]: much faster

- extent of release from capsules ([2]; after one week): not fully released
Compound: Cc1ccc2c(c1)sc(-c1ccc(N(C)C)cc1)[n+]2C.[Cl-] [ThT, Thioflavin T]

- time to maximum release rate ([2]; release from lysozyme capsules in fresh buffer): one
Compound: CC1(C)S[C@@H]2[C@H](NC(=O)COc3ccccc3)C(=O)N2[C@H]1C(=O)O [Penicillin V]
